Measurements taken from ChEMBL document CHEMBL4311945, “Development of Dual Chitinase Inhibitors as Potential New Treatment for Respiratory System Diseases” (J Med Chem, 2019).

What was measured:
[1] = molecular target: Voltage-gated inwardly rectifying potassium channel KCNH2 (Homo sapiens, UniProt Q12809); assay: Displacement of Tracer Red from human ERG by fluorescence polarization assay
[2] = molecular target: Chitotriosidase-1 (Mus musculus, UniProt Q9D7Q1); assay: Inhibition of full-length C-terminal his-tagged mouse CHIT1 expressed in CHO-K1 cells assessed as reduction in chitinolytic activity using 4-methylumbelliferyl-beta-D-N,N',N\"-triacetylchitotrioside as substrate after 60 mins by fluorometric assay; format: cell-based
Sequence of Chitotriosidase-1 (Mus musculus, UniProt Q9D7Q1) (Q9D7Q1 whole entry): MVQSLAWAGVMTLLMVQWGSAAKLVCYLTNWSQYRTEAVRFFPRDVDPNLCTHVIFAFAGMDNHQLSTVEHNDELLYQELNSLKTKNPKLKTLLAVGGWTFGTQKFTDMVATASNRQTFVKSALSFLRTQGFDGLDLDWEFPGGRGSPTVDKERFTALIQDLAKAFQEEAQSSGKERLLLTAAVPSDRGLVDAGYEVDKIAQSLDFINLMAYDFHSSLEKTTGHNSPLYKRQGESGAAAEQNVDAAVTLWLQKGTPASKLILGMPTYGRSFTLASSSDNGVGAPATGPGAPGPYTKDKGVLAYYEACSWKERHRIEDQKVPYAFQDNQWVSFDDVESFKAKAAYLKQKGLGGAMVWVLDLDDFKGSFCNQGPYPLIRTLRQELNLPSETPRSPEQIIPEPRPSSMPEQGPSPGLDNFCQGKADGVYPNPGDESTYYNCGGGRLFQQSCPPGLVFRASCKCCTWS

[3] = molecular target: Acidic mammalian chitinase (Mus musculus, UniProt Q91XA9); assay: Inhibition of full-length C-terminal his-tagged mouse acidic mammalian chitinase expressed in CHO-K1 cells assessed as reduction in chitinolytic activity using 4-methylumbelliferyl-beta-D-N,N'-diacetylchitobioside hydrate as substrate after 60 mins by fluorometric assay
Sequence of Acidic mammalian chitinase (Mus musculus, UniProt Q91XA9) (Q91XA9 whole entry): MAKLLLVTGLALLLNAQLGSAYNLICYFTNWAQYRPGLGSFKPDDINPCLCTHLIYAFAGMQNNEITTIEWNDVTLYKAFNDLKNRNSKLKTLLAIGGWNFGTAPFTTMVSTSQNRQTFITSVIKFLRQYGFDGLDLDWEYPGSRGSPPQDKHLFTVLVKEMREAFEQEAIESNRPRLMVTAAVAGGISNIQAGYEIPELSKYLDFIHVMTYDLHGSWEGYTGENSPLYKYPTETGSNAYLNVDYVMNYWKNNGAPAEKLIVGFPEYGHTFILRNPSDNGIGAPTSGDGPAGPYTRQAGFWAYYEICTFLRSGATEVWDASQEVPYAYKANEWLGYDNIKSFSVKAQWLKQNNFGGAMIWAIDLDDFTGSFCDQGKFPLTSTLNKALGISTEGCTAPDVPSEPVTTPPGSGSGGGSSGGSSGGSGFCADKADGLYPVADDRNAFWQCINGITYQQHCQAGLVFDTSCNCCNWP

[4] = molecular target: Chitotriosidase-1 (Homo sapiens, UniProt Q13231); assay: Inhibition of full-length C-terminal his-tagged human CHIT1 expressed in CHOK1 cells assessed as reduction in chitinolytic activity using 4-methylumbelliferyl-beta-D-N,N',N\"-triacetylchitotrioside as substrate after 60 mins by fluorometric assay; format: cell-based
Sequence of Chitotriosidase-1 (Homo sapiens, UniProt Q13231) (Q13231 whole entry): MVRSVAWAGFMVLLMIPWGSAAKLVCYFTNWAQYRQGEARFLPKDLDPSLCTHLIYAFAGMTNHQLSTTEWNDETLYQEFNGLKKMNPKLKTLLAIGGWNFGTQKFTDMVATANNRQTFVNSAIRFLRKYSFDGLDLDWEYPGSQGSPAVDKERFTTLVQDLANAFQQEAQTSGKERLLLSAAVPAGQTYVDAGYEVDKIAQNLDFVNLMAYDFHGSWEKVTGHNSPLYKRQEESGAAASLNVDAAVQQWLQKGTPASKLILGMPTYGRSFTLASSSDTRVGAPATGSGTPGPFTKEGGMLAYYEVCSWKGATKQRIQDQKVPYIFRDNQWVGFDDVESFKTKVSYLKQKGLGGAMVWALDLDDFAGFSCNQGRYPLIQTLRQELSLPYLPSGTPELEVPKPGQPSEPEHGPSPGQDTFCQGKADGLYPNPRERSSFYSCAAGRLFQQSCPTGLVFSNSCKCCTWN

[5] = molecular target: dopamine transporter (DAT) (Homo sapiens, UniProt Q01959); assay: Displacement of [3H]BTCP from recombinant human dopamine transporter at 10 uM after 120 mins by scintillation counting analysis relative to control; format: ADME; conditions: probe [3H]BTCP
Sequence of dopamine transporter (DAT) (Q01959 whole entry): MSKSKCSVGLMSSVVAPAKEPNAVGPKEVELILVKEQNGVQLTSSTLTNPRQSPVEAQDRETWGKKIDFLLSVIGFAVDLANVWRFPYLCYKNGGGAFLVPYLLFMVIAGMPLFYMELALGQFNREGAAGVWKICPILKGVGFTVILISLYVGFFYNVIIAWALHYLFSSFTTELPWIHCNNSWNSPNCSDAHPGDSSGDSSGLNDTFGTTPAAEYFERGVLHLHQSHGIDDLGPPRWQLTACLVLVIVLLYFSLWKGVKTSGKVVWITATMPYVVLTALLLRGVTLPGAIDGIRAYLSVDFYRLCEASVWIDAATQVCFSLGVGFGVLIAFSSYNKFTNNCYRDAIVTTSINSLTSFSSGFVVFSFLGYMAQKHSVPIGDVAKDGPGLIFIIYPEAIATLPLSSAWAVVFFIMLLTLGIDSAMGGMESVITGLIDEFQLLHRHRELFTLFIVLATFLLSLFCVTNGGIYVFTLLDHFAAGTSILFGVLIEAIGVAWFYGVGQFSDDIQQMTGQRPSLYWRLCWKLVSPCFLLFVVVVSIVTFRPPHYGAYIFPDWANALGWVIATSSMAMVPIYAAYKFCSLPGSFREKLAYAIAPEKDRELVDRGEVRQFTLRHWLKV

[6] = Lipophilicity, logD of the compound at pH 7.4; format: physicochemical; conditions: buffer
[7] = molecular target: Acidic mammalian chitinase (Homo sapiens, UniProt Q9BZP6); assay: Inhibition of full-length C-terminal his-tagged human acidic mammalian chitinase expressed in CHOK1 cells assessed as reduction in chitinolytic activity using 4-methylumbelliferyl-beta-D-N,N-diacetylchitobioside hydrate as substrate after 60 mins by fluorometric assay
Sequence of Acidic mammalian chitinase (Homo sapiens, UniProt Q9BZP6) (Q9BZP6 whole entry): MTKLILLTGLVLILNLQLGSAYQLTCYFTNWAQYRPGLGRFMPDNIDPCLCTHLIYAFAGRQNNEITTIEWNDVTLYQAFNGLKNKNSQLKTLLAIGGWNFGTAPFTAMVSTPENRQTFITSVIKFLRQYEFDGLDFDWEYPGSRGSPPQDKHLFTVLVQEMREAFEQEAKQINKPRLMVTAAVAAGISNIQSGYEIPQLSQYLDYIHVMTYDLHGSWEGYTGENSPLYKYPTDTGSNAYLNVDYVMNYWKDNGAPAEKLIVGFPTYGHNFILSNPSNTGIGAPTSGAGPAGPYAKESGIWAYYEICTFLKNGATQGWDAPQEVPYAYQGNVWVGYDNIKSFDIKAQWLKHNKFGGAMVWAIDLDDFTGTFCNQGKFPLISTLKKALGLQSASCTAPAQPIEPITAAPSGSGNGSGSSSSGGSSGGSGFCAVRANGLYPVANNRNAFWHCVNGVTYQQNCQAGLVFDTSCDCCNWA

Sequence of Voltage-gated inwardly rectifying potassium channel KCNH2 (Q12809 whole entry): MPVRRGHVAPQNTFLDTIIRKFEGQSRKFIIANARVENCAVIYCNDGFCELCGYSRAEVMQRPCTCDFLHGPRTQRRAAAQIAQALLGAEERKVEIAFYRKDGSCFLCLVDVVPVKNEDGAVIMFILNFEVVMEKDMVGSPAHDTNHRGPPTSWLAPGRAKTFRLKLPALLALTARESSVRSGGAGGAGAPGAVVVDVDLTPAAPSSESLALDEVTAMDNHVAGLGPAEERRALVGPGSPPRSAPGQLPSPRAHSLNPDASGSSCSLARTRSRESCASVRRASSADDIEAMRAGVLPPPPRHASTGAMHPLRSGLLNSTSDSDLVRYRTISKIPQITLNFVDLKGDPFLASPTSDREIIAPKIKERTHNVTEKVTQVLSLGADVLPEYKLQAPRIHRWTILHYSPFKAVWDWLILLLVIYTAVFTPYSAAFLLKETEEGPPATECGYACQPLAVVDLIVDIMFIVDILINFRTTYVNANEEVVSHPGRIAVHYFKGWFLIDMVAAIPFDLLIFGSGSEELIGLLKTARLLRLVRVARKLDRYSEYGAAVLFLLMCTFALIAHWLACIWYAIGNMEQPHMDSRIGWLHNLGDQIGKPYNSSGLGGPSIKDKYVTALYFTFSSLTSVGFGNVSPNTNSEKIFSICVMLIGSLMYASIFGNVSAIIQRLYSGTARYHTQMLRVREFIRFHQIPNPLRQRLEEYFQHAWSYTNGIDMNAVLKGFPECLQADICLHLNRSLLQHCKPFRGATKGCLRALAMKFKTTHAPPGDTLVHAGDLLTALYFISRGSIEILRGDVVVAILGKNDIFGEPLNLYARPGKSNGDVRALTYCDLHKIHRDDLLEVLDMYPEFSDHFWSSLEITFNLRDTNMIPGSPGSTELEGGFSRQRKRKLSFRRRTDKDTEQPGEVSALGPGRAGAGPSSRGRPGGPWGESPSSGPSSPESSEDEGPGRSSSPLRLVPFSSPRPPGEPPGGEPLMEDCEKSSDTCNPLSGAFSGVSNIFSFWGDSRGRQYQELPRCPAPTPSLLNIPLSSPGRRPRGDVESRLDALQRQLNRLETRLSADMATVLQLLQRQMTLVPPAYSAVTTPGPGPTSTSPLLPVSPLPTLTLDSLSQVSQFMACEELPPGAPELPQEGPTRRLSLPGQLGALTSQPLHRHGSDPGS

| Compound | IC50 [2] | IC50 [3] | IC50 [4] | inhibition at 2 h, 10 µM [5] | logD [6] | IC50 [7] | IC50 [1] |
| --- | --- | --- | --- | --- | --- | --- | --- |
| CC(=O)NCCN(CCc1ccc(Cl)cc1)C1CCN(c2nc(N)n[nH]2)CC1 | 8.1 µM | 0.035 µM | 0.495 µM |  |  |  | 3.3 µM |
| CNC(=O)CN(CCc1ccc(Cl)cc1)C1CCN(c2nc(N)n[nH]2)CC1 | 48 µM | 1.15 µM | 1.8 µM |  |  |  | 2.6 µM |
| Nc1n[nH]c(N2CCC(N(CCc3ccc(Cl)cc3)CC3CCCO3)CC2)n1 (centres undefined) | 1.08 µM | 0.017 µM | 0.027 µM | 74% |  |  | 15 µM |
| Nc1n[nH]c(N2CCC(N(CCc3ccc(Cl)cc3)CC(=O)O)CC2)n1 | 21 µM | 0.395 µM | 1.9 µM |  |  |  | 8 µM |
| COC(C)(C)CN(CCc1ccc(Cl)cc1)C1CCN(c2nc(N)n[nH]2)CC1 | 3.65 µM |  | 0.505 µM |  |  |  | 3.5 µM |
| CNC(=O)NCCN(CCc1ccc(Cl)cc1)C1CCN(c2nc(N)n[nH]2)CC1 | 9.1 µM | 0.13 µM | 1.43 µM |  |  |  | 1.8 µM |
| Nc1n[nH]c(N2CCC(N(CCO)CCc3ccc(Cl)cc3)CC2)n1 | 4.8 µM | 0.135 µM | 0.384 µM |  |  |  | 6.3 µM |

The next lines start with results.

| IC50 [2] | IC50 [3] | IC50 [4] | inhibition at 2 h, 10 µM [5] | logD [6] | IC50 [7] | Compound | IC50 [1] |
| --- | --- | --- | --- | --- | --- | --- | --- |
| 1.15 µM | 0.053 µM | 0.044 µM | 33% |  |  | CO[C@@H](C)CN(CCc1ccc(Cl)cc1)C1CCN(c2nc(N)n[nH]2)CC1 | 17.6 µM |
| 1.7 µM | 0.055 µM | 0.084 µM |  |  |  | COCCN(CCc1ccc(Cl)cc1)C1CCN(c2nc(N)n[nH]2)CC1 | 2.8 µM |
| 0.345 µM | 0.065 µM | 0.047 µM | 59% | 1.6 |  | CO[C@H]1C[C@H](Cc2ccc(Cl)cc2)N(C2CCN(c3nnc(N)[nH]3)CC2)C1 |  |
| 0.135 µM | 0.068 µM |  |  | 0.68 |  | Nc1nc(N2CCC(N3C[C@H](O)C[C@@H]3Cc3ccc(Cl)cc3)CC2)n[nH]1 | 55 µM |
| 0.087 µM | 0.081 µM | 0.041 µM |  | 1.41 | 0.023 µM | Nc1nnc(N2CCC(N3CCCC[C@@H]3Cc3ccc(Cl)cc3)CC2)[nH]1 | 8.3 µM |
| 37 µM | 2.6 µM | 19.5 µM |  |  |  | Nc1n[nH]c(N2CCC(N3CCC(c4ccc(Cl)cc4)C3)CC2)n1 (centres undefined) |  |
| 0.43 µM | 0.12 µM |  |  | 1.15 |  | Nc1nnc(N2CCC(N3CCC[C@@H]3Cc3ccc(Cl)cc3)CC2)[nH]1 | 4 µM |
